One molecule from PMC4758254 (Nature plants, 2015) can be followed below.

In experiment [1] the target is T1, AtINT2 (Arabidopsis thaliana, UniProt Q9C757).
T1 sequence (Q9C757 1-580): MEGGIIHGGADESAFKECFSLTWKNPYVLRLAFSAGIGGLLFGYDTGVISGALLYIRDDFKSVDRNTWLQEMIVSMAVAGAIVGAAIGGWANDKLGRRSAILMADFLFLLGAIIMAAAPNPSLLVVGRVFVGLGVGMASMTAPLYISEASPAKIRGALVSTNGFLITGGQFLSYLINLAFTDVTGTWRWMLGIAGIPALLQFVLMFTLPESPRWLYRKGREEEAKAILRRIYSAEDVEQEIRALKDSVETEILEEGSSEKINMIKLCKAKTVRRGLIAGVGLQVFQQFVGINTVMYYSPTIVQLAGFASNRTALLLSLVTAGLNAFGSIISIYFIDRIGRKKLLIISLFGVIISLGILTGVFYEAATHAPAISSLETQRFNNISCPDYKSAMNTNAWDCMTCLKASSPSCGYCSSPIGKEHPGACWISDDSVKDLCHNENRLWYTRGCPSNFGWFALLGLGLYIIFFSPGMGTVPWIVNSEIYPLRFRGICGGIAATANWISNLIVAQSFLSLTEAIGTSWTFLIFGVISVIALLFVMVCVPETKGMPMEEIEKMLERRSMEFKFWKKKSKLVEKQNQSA
The experiment is described as follows: inhibition of arsenic uptake into yeast cells, ICP-MS. The class given is cell-based. Particulars: 250 μM As(III), 0-8 μg/mL myo-inositol, 24 h, 30 °C; substrate competition.

For experiment [2], the target named is T2, AtINT4 (Arabidopsis thaliana, UniProt O23492).
T2 sequence (O23492 1-582): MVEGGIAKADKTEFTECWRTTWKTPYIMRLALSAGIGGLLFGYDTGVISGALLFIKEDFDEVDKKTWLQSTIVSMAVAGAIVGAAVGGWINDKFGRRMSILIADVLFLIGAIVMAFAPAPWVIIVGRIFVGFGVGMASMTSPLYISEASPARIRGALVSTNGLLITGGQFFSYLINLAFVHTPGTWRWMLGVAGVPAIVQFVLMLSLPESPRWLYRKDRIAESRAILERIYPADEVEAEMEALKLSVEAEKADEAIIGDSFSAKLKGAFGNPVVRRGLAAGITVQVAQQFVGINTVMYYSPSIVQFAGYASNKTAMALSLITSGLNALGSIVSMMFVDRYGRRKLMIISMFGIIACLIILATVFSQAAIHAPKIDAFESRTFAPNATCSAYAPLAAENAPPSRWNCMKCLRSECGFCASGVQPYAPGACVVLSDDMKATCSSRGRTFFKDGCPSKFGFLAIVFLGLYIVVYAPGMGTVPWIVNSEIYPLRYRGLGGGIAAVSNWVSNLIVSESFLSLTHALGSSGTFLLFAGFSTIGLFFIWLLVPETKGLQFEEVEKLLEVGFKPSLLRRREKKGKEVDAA
The description is as above. Type of experiment: cell-based. The following applies: 250 μM As(III), 0-8 μg/mL myo-inositol, 24 h, 30 °C; substrate competition.

Structures are written as SMILES.

As to `O[C@H]1[C@H](O)[C@@H](O)[C@H](O)[C@@H](O)[C@H]1O` [myo-inositol], the “inhibition of arsenic uptake into yeast cells, ICP-MS” value in experiment [1] and in experiment [2] was “substrate competition inhibited arsenic accumulation in D458-1B expressing AtINT2 or AtINT4” each time.
